According to patent publication US20150190416A1, “FILAGGRIN PRODUCTION PROMOTER, THERAPEUTIC AGENT FOR DISEASES ASSOCIATED WITH REDUCTION IN PRODUCTION OF FILAGGRIN, AND METHOD FOR SCREENING FOR SAID THERAPEUTIC AGENT” (KYOTO UNIVERSITY, priority 2012, published 2015):

Tests used:
Type in all cases: cell-based, human
GPR142 [1] = experiment: G protein-coupled receptor (GPCR) array in NHEK cells, GPR142 (Example 3); settings: Compound 1 1 μM, 3 days
Experimental: In this example, the expression-increasing effect of Compound 1 on a GPCR in NHEK cells was confirmed by using a GPCR array.
1) 5×10^4 cells/well of NHEK cells (Invitrogen) were plated on a 24-well plate, and then 500 μl of a culture medium containing a medium for proliferating normal human epidermal keratinocytes (HuMedia-KG2, KURABO INDUSTRIES LTD.) supplemented with hEGF (0.1 ng/ml), insulin (10 μg/ml), hydrocortisone (0.5 μg/ml), gentamycin (50 μg/ml), amphotericin B (50 ng/ml), and bovine brain pituitary extract (BPE) (0.4%, v/v) were added to the plate, and the cells were cultured under the conditions of 37° C. and 5% CO2 for from 3 to 4 days until the 80 to 85% confluent state was achieved.
2) Next, a DMSO solution of Compound 1 was added to the medium at 1 μM per well, and culture was further conducted for 3 days without changing the medium. In addition, regarding the system to which only CaCl2 (1.5 mM in terms of Ca) as Ca was added and the system to which both Compound 1 and CaCl2 (1.5 mM in terms of Ca) as Ca were added, the culture was conducted in a similar manner for 3 days. As a control example, a solvent only (vehicle) was added.
3) An extraction reagent (TRIzol™, Invitrogen) was used, and according to the manufacturer's protocol, total RNA was extracted from each of cells treated in the step 2). A reverse transcriptase reagent (Prime Script™, Takara) was used, and according to the manufacturer's protocol, cDNA was prepared from the total RNA. Next, a TaqMan™ human GPCR array (AB 4365295, Applied Biosystems) was used, and the analysis was conducted by an ABI PRISM™ 7900HT gene analyzer (Applied Biosystems). The result of measurement was shown as the comparison of the cycle number (ΔCt value) to 18S ribosomal RNA as a control (comparative Ct method).

GPR142 mRNA = GPR142 mRNA expression in NHEK cells, real-time PCR (Example 4); settings: Compound 1 1 μM, Ca 1.2 mM, 3 days, compared to the control
Experimental: In this example, the expression-inducing effects of Compound 1 on GPR142 mRNA and GPR22 mRNA in NHEK cells were confirmed.
(§1) 1) 5×10^4 cells/well of NHEK cells (Invitrogen) were plated on a 24-well plate. Then, 500 μl of a culture medium containing a medium for proliferating normal human epidermal keratinocytes (HuMedia-KG2, KURABO INDUSTRIES LTD.) supplemented with hEGF (0.1 ng/ml), insulin (10 μg/ml), hydrocortisone (0.5 μg/ml), gentamycin (50 μg/ml), amphotericin B (50 ng/ml), and bovine brain pituitary extract (BPE) (0.4%, v/v) were added to the plate, and the cells were cultured under the conditions of 37° C. and 5% CO2.
2) After culture under the conditions of the step 1) for 1 day, the medium was exchanged for the culture medium of the step 1) to which a DMSO solution of Compound 1 was added at 1 μM per well every day and the culture was conducted for 3 days. […]
3) An extraction reagent (TRIzol™, Invitrogen) was used, and according to the manufacturer's protocol, total RNA was extracted from each of cells treated with the medicament. […] Next, real-time PCR was conducted by using the following primers and SYBR™ Premix Ex Taq (Takara) with a CFX96 real-time PCR instrument according to the manufacturer's protocol, and the amounts of GPR142mRNA and GPR22mRNA expression were measured. […]

GPR142 [2] = experiment: Blocking effect by GPR142 RNAi in NHEK cells (Examples 5 and 6); settings: calcium priming, siRNA 50 nM, Compound 1 10 nM, 1 day
Experimental: In this example, it was confirmed that the expression-inducing effects of Compound 1 on GPR142 mRNA and FLG mRNA in NHEK cells were blocked by GPR142 RNAi.
as §1
2) After culture under the conditions of the step 1) for 1 day, the medium was exchanged for the culture medium of the step 1) to which CaCl2 (1.2 mM in terms of Ca) was further added as Ca, and culture was conducted under the conditions of 37° C. and 5% CO2. After culture for 1 day, the medium was exchanged for the same culture medium containing Ca, and culture was further conducted for 1 day.
3) The NHEK cells of the step 2) were transfected with 50 nM of siRNA per well of the 24-well plate by using a transfection reagent, Lipofectamine RNA Max (Invitrogen) according to the manufacturer's protocol.
The sequences of the used three kinds of GPR142 siRNAs and the sequences of the used control siRNAs (all the siRNAs are manufactured by Invitrogen) are described below.
4) After culture for 1 day after the transfection with siRNA in the step 3), the medium was exchanged for the culture medium of the step 1) to which a DMSO solution of Compound 1 was added at 10 nM per well, and culture was further conducted for 1 day. As a control, a solvent only (vehicle) was added.
5) An extraction reagent (TRIzol™, Invitrogen) was used, and according to the manufacturer's protocol, total RNA was extracted from each of cells treated with the medicament. A reverse transcriptase reagent (Prime Script™, Takara) was used, and according to the manufacturer's protocol, cDNA was prepared from the total RNA. Next, real-time PCR was conducted by using the following primers and SYBR™ Premix Ex Taq (Takara) with a CFX96 real-time PCR instrument according to the manufacturer's protocol, and the amounts of GPR142 mRNA and FLG mRNA expression were measured. The result of measurement is shown as a GAPDH ratio.
In this example, it was confirmed that the expression-inducing effects of Compound 2 or 3 on GPR142 mRNA and FLG mRNA in NHEK cells were blocked by GPR142 RNAi.
NHEK cells were transfected in the same manner as in Example 5 except that, in the steps 1) to 3) of Example 5, two kinds of GPR142 siRNAs and two kinds of control siRNAs, i.e., GPR142-1 (#HSS139493) and GPR142-3 (#HSS179846) and Control-1 (LOW GC, #129350-200), and Control-3 (HIGH GC, #129350-400) were used as GPR142 siRNAs and control siRNAs, respectively. After culture for 1 day after the transfection was conducted in the same manner as in the step 4) of Example 5, the medium was exchanged for the culture medium to which each of a DMSO solution of Compound 1, a DMSO solution of Compound 2, or a methanol solution of Compound 3 was added at 10 nM per well, and culture was further conducted for 1 day. As a control, a solvent only (vehicle) was added. Regarding each of cells treated with the medicament, real-time PCR was conducted to measure the amounts of GPR142 mRNA and FLG mRNA in the same manner as in the step 5) of Example 5. The results of the measurement are shown as a GAPDH ratio.

GPR22 = experiment: Blocking effect by GPR22 RNAi in NHEK cells (Reference Example 1); settings: calcium priming, siRNA 10 nM, Compound 1 10 nM, 1 day
Experimental: as §1
2) 1 day after the step 1), the medium was exchanged for the medium supplemented with calcium every day, and culture was conducted for 2 days (priming).
3) The NHEK cells of the step 2) were transfected with 10 nM of siRNA per well of the 24-well plate by using a transfection reagent, Lipofectamine RNA Max (Invitrogen) according to the manufacturer's protocol.
4) After culture for 1 day after the step 3), the medium was exchanged for a medium to which Compound 1 dissolved in DMSO was added at 10 nM per well on the 24-well plate, and culture was conducted for 1 day. As a control example, a solvent only (vehicle) was added.
5) An extraction reagent (TRIzol™, Invitrogen) was used, and according to the manufacturer's protocol, total RNA was extracted from each of cells treated with the medicament. A reverse transcriptase reagent (Prime Script™, Takara) was used, and according to the manufacturer's protocol, cDNA was prepared from the total RNA. Real-time PCR was conducted by using SYBR™ Premix Ex Taq (Takara) with a CFX96 real-time PCR instrument according to the manufacturer's protocol, and the amounts of GPR22 mRNA and FLG mRNA were measured. The results of measurement are shown as a GAPDH ratio.

What does the source list for `[Ca+2].[Cl-].[Cl-]` [Calcium, CaCl2, reference compound]?
GPR142 mRNA expression (GPCR array), in words (GPR142 [1]; Ca 1.5 mM): induced GPR142 mRNA expression; GPR142: cycle number (ΔCt value) to 18S ribosomal RNA (GPR142 [1]; CaCl2 1.5 mM in terms of Ca, control 29.2): −4.9; GPR142 mRNA expression (GAPDH ratio) (GPR142 mRNA): GPR142 mRNA expression was induced; FLG mRNA expression in the presence of GPR142 siRNA (GPR142 [2]): suppressed by GPR142 siRNA; GPR142 mRNA expression in the presence of GPR142 siRNA (GPR142 [2]): suppressed by GPR142 siRNA; FLG mRNA expression in the presence of GPR22 siRNA (GPR22): not suppressed; GPR22 mRNA expression in the presence of GPR22 siRNA (GPR22): suppressed by GPR22 siRNA
